Test [1] concerns the target T1, KIT(V560G) (Homo sapiens, UniProt P10721, V560G).
T1 construct: purchased Carna Biosciences, Inc. (Kobe, Japan)
In words: Cell free kinase inhibition assay. The class given is biochemical.

In test [2] the target is T2, PDGFRα(V561D) (Homo sapiens, UniProt P16234, V561D).
T2 construct: purchased Carna Biosciences, Inc. (Kobe, Japan)
In words: Cell free kinase inhibition assay. The class given is biochemical.

Test [3] has as its target T3, FGFR2 (Homo sapiens, UniProt P21802).
T3 construct: purchased Carna Biosciences, Inc. (Kobe, Japan)
In words: Cell free kinase inhibition assay. The class given is biochemical.

Test [4] has as its target T4, FGFR1 (Homo sapiens, UniProt P11362).
T4 construct: purchased Carna Biosciences, Inc. (Kobe, Japan)
Briefly: Cell free kinase inhibition assay. The class given is biochemical.

The target in test [5] is T5, FRK (Homo sapiens, UniProt P42685).
T5 construct: purchased Carna Biosciences, Inc. (Kobe, Japan)
T5 sequence (P42685 whole entry): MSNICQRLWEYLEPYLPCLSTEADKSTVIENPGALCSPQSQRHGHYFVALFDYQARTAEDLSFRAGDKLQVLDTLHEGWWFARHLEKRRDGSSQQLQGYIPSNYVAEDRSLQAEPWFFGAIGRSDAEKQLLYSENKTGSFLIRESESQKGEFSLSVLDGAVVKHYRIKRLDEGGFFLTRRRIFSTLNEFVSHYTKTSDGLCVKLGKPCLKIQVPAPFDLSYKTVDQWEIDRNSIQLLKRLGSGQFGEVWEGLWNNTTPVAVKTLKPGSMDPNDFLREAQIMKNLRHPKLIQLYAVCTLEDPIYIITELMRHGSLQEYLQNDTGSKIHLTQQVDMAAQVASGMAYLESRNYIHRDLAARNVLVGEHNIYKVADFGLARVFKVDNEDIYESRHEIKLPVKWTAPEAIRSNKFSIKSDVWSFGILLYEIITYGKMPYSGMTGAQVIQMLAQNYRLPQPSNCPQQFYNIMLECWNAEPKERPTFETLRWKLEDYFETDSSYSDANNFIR
In words: Cell free kinase inhibition assay. The class given is biochemical.

Test [6] addresses T6, BRK (Homo sapiens, UniProt Q13882).
T6 construct: purchased Carna Biosciences, Inc. (Kobe, Japan)
In words: Cell free kinase inhibition assay. The class given is biochemical.

The target of test [7] is T7, HGK (Homo sapiens, UniProt O95819).
T7 construct: purchased Carna Biosciences, Inc. (Kobe, Japan)
In words: Cell free kinase inhibition assay. The class given is biochemical.

Test [8] addresses T8, KIT(T670I) (Homo sapiens, UniProt P10721, T670I).
T8 construct: purchased Carna Biosciences, Inc. (Kobe, Japan)
Briefly: Cell free kinase inhibition assay. The class given is biochemical.

The target in test [9] is T9, FGR (Homo sapiens, UniProt P09769).
T9 construct: purchased Carna Biosciences, Inc. (Kobe, Japan)
Briefly: Cell free kinase inhibition assay. The class given is biochemical.

In test [10] the target is T10, RAF1 (Homo sapiens, UniProt P04049).
T10 construct: purchased Carna Biosciences, Inc. (Kobe, Japan)
Briefly: Cell free kinase inhibition assay. The class given is biochemical.

The target in test [11] is T11, FLT3 (Homo sapiens, UniProt P36888).
T11 construct: purchased Carna Biosciences, Inc. (Kobe, Japan)
T11 sequence (P36888 27-993): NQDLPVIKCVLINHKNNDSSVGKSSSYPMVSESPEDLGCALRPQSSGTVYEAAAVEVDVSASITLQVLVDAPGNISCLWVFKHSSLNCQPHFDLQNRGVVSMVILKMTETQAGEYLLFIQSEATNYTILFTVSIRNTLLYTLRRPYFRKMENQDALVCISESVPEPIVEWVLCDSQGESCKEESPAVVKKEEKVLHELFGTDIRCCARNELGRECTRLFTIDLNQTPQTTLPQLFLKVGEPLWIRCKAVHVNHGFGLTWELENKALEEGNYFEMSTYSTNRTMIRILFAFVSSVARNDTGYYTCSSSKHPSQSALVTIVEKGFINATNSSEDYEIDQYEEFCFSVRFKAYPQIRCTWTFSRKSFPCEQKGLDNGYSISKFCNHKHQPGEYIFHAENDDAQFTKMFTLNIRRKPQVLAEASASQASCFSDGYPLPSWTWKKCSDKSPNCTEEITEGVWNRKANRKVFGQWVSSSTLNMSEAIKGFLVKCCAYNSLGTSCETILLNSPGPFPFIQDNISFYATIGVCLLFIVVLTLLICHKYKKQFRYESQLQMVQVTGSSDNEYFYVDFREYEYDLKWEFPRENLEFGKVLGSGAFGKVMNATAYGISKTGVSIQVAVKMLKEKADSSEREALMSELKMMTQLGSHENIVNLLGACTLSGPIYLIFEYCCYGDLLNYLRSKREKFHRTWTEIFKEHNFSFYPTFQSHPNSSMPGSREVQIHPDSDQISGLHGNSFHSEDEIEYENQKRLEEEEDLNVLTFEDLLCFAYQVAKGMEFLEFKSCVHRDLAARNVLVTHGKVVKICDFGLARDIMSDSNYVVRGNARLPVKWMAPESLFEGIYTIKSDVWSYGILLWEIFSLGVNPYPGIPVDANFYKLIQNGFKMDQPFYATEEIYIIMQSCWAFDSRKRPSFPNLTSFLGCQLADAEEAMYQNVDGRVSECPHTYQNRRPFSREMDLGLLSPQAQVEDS
Briefly: Cell free kinase inhibition assay. The class given is biochemical.

For test [12], the target named is T12, EPHB3 (Homo sapiens, UniProt P54753).
T12 construct: purchased Carna Biosciences, Inc. (Kobe, Japan)
Briefly: Cell free kinase inhibition assay. The class given is biochemical.

Test [13] deals with T13, FAK (Homo sapiens, UniProt Q05397).
T13 construct: purchased Carna Biosciences, Inc. (Kobe, Japan)
In words: Cell free kinase inhibition assay. The class given is biochemical.

The target of test [14] is T14, KIT(D816V) (Homo sapiens, UniProt P10721, D816V).
T14 construct: purchased Carna Biosciences, Inc. (Kobe, Japan)
In words: Cell free kinase inhibition assay. The class given is biochemical.

Test [15] addresses T15, CDK2/CycE1 (Homo sapiens, UniProt P24941).
T15 construct: purchased Carna Biosciences, Inc. (Kobe, Japan)
Briefly: Cell free kinase inhibition assay. The class given is biochemical.

Test [16] concerns the target T16, MLK1 (Homo sapiens, UniProt P80192).
T16 construct: purchased Carna Biosciences, Inc. (Kobe, Japan)
Briefly: Cell free kinase inhibition assay. The class given is biochemical.

Test [17] addresses T17, PRKX (Homo sapiens, UniProt P51817).
T17 construct: purchased Carna Biosciences, Inc. (Kobe, Japan)
In words: Cell free kinase inhibition assay. The class given is biochemical.

Test [18] concerns RO82-W-1 cells. In words: Antiproliferation assay (WST-8). The class given is cell-based, human. The note with it: Homo sapiens, 72 h; RO82-W-1 (DTC), antiproliferative, 3 days. For orientation: Tetrazolium assays rely on reduction of a dye to a coloured formazan, in cell work by metabolically active cells.
Test [19] concerns human thyroid cancer cell lines. Briefly: Antiproliferation assay, panel of 11 cell lines. The class given is cell-based. The note with it: 9 out of the 11 cell lines, in vitro antiproliferative. The protocol: The human DTC cell lines K1, FTC-133, FTC-236, FTC-238, and RO82-W-1 and the human thyroid follicular epithelial cell line Nthy-ori 3-1 were obtained from DS Pharma Biomedical Co., Ltd. (Osaka, Japan). The human MTC cell line TT was obtained from the American Type Culture Collection (Manassas, VA). The human ATC cell lines 8305C, 8505C, HTC/C3, KHM-5M, and TCO-1 were obtained from the Japanese Collection of Research Bioresources Cell Bank (Osaka, Japan). […]
Cells (1,000–3,000/well) were seeded and cultured in 96-well culture plates. […] Cell numbers were determined by using WST-8 (Dojindo, Kumamoto, Japan); 10 μL of WST-8 was added to each well, and absorbance was measured at a wavelength of 450 nm and compared with a reference measurement at 660 or 665 nm by using an MTP-500 microplate reader (Corona Electric, Ibaraki, Japan) or an EnVision Multilabel Reader (Perkin Elmer, Turku, Finland). […]

The subject of test [20] is K1 xenograft. Briefly: Human thyroid cancer xenograft model, tumor growth. The class given is in vivo, nude mice. The settings on record: K1 xenograft, 1, 3, and 10 mg/kg oral once daily 14 days. The protocol:
(§1) Nude mice (CAnN.Cg-Foxn1nu/CrlCrlj, female, 5-6 weeks old) were obtained from Charles River Laboratories Japan (Kanagawa, Japan). Mice were maintained under specific pathogen-free conditions and housed in barrier facilities on a 12 h light/dark cycle, with food and water ad libitum. All procedures using laboratory animals were done in accordance with all applicable institutional and government regulatory guidelines and policies and were performed in an animal facility accredited by the Center for Accreditation of Laboratory Animal Care of the Japan Health Sciences Foundation. Tumor cells were cultured in appropriate culture mediums. […] Then, 0.1-0.2 mL of the cell suspension was inoculated subcutaneously into the right flank region of each mouse. […] The tumor size was measured in two dimensions by using a caliper, and the volume was calculated by using the formula: tumor volume (mm^3) = 1/2 length (mm) × [width (mm)]^2. The change in tumor volume in the treated group relative to that in the control group was calculated according to the following formula: ΔT/C = (ΔT/ΔC) × 100%, where ΔT and ΔC are the change in tumor volume (i.e., growth) for the treated and vehicle control group, respectively. The percentage of tumor growth inhibition (%TGI) was calculated from the formula: [(1 − ΔT/ΔC) × 100].

The subject of test [21] is TT xenograft. In words: Human thyroid cancer xenograft model, tumor growth. The class given is in vivo, nude mice. As for the experimental part: as §1
A general note: A xenograft is tissue or cells of one species grown in another, often human tumour cells in immunodeficient mice.

The subject of test [22] is RET. Briefly: Western blot of RET phosphorylation in TT xenografts. The settings on record: 2 h after oral administration. For orientation: In western blotting, separated proteins are transferred to a membrane and probed.

T6 sequence (Q13882 whole entry): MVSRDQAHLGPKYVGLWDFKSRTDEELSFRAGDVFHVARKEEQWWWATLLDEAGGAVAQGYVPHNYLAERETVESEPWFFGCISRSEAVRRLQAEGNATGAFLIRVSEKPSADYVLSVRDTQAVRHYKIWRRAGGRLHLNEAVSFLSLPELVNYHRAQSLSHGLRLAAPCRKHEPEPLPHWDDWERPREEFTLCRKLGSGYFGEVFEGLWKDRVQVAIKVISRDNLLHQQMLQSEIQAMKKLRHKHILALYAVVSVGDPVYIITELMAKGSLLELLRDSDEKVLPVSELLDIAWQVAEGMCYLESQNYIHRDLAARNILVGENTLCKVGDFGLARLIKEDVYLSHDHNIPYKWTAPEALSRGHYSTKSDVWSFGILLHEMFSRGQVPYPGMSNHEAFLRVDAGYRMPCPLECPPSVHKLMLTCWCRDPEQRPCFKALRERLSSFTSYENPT
T2 sequence (P16234 24-1089 V561D): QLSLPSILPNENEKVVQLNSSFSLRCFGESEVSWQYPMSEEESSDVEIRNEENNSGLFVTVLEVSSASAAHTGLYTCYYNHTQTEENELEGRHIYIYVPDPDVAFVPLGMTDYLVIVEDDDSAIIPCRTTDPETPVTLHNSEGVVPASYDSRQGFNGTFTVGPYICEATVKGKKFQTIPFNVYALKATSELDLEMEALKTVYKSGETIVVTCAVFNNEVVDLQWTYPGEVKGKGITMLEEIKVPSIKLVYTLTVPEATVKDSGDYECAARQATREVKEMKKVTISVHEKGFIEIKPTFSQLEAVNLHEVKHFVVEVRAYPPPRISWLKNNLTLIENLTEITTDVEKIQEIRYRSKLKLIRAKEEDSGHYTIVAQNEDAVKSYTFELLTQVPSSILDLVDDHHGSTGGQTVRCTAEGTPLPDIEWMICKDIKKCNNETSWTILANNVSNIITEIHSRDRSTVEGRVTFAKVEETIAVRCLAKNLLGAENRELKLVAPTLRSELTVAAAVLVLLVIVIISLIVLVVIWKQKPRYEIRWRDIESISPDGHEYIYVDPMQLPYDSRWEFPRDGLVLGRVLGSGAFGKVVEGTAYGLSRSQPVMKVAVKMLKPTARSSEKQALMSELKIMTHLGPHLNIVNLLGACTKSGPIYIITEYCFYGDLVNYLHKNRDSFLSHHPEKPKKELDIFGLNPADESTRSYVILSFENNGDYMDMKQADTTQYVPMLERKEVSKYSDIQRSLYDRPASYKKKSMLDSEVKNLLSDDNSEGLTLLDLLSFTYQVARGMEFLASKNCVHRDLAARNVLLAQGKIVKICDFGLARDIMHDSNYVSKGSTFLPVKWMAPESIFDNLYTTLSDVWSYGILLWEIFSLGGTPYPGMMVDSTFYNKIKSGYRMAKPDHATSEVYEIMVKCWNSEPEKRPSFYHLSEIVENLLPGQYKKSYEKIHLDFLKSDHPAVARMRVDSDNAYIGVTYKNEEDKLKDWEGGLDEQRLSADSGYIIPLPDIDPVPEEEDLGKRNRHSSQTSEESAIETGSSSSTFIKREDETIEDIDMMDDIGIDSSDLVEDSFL
T16 sequence (P80192 whole entry): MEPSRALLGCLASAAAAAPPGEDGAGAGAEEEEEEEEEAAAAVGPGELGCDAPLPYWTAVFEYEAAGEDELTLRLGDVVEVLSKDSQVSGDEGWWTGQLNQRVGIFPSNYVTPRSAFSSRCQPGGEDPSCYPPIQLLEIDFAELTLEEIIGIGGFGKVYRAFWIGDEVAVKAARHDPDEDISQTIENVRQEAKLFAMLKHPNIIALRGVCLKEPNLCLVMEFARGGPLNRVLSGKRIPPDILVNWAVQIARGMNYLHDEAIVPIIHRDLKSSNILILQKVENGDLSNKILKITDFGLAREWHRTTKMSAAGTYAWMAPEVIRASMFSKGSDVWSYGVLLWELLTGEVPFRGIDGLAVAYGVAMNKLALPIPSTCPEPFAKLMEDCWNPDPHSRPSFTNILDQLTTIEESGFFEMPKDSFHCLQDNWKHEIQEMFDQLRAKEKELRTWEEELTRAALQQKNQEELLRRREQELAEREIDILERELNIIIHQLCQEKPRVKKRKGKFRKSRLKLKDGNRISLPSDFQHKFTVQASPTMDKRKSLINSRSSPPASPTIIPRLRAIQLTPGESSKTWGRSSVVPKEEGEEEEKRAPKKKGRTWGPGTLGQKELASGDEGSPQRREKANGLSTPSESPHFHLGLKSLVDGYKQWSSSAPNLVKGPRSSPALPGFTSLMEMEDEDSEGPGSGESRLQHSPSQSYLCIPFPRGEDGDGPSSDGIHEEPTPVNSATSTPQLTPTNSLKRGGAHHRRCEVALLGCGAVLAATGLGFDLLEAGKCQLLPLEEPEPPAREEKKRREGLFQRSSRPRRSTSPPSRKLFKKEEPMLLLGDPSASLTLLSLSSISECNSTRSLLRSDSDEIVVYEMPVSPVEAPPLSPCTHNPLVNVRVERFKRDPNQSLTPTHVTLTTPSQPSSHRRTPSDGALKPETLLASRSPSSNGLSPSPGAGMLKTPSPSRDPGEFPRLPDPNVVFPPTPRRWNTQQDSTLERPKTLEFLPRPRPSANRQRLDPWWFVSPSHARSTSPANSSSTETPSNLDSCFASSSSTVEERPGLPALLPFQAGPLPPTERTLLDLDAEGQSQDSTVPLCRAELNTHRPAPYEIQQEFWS
T8 sequence (P10721 26-976 T670I): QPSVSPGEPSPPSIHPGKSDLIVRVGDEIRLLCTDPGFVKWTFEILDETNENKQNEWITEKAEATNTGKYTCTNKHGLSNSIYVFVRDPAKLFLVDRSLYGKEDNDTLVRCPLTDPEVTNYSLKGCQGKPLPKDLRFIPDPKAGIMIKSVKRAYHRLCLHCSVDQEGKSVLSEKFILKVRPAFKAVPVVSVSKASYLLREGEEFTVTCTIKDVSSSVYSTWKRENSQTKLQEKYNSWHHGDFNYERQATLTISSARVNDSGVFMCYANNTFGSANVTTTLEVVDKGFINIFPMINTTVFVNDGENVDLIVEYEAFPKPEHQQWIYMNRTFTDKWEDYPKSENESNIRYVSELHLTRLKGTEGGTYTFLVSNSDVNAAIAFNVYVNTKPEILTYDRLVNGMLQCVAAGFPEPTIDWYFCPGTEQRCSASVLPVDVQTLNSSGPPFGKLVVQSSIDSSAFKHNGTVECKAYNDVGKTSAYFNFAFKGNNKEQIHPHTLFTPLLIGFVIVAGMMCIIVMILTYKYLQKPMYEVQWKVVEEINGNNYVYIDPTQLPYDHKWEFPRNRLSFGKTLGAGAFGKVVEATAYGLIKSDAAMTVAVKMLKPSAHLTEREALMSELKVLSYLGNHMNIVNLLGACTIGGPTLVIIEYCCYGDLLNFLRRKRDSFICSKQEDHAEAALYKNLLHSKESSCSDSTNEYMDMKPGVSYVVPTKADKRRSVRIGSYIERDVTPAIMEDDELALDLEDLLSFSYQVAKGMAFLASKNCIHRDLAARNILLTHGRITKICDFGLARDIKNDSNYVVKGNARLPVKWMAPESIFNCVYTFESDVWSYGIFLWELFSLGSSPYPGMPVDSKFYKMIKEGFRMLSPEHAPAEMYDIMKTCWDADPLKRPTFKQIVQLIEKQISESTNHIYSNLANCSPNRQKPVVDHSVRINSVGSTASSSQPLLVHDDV
T1 sequence (P10721 26-976 V560G): as the sequence (P10721 26-976 T670I) above, with V535G, I645T counted along it

As to `COc1cc2nccc(Oc3ccc(NC(=O)NC4CC4)c(Cl)c3)c2cc1C(N)=O` [Lenvatinib, Lenvatinib mesilate], the IC50 in test [1] worked out at 0.74 nM; in [2], 25 nM; in [3] it was 27 nM; in test [4] it was 61 nM; in [5], 160 nM; in [6], 170 nM. Also, the IC50 is 400 nM in test [7]; 410 nM in test [8]; 910 nM in test [9]; 1600 nM in test [10]; 4.1 µM in [11]; above 10 µM in test [12]. For the same compound, the IC50 is above 10 µM in test [13]; above 10 µM in [14]; above 10 µM in test [15]; above 10 µM in [16]; above 10 µM in test [17]; 3.8 µM in test [18]. In addition, the IC50 in test [19] was above 10 µM. Moreover, the antitumor activity entry in test [20] is listed as “significant antitumor activity”. Besides, the tumor volume change result in test [21] (TT xenografts, 100 mg/kg oral once daily 29 days) was “tumor shrinkage”. Besides, the “in vivo tumor growth” value in test [21] (TT xenografts, 10, 30, and 100 mg/kg oral once daily 29 days) is reported as “inhibited in vivo tumor growth of TT xenografts in a dose-dependent manner”. The RET phosphorylation result in test [22] is recorded as “inhibition of RET phosphorylation”.

As usually defined, the IC50 is the concentration at which inhibition is half-maximal. Lower therefore signals greater potency in that assay.
